Active and inactive are the calls of the source. No cut-off for these calls is given here.
Assays:
Triticum aestivum [1] = experiment: Phytotoxicity against Triticum aestivum (wheat) plant at two to four-leaf growth stage at 500 g/ha measured after 13 days under green house conditions; type: organism-based; settings: in vivo, 312 h
Sorghum halepense [2] = experiment: Post-emergent herbicidal activity against Sorghum halepense (Johnson grass) at <2 g/ha measured after 13 days under green house conditions; type: functional, organism-based
Zea mays [3] = experiment: Phytotoxicity against Zea mays (maize) plant at two to four-leaf growth stage at <2 g/ha measured after 13 days under green house conditions; type: organism-based; settings: in vivo, 312 h
Triticum aestivum [4] = experiment: Phytotoxicity against Triticum aestivum (wheat) at two to four-leaf growth stage at <2 g/ha measured after 13 days under green house conditions; type: organism-based; settings: in vivo, 312 h
Sorghum halepense [5] = experiment: Post-emergent herbicidal activity against Sorghum halepense (Johnson grass) at 500 g/ha measured after 13 days under green house conditions; type: functional
Echinochloa crus-galli [6] = experiment: Post-emergent herbicidal activity against Echinochloa crus-galli (barnyard grass) at 500 g/ha measured after 13 days under green house conditions; type: functional
Setaria viridis [7] = experiment: Post-emergent herbicidal activity against Setaria viridis (green foxtail) at <2 g/ha measured after 13 days under green house conditions; type: functional, organism-based
Avena fatua [8] = experiment: Post-emergent herbicidal activity against Avena fatua at 500 g/ha measured after 13 days under green house conditions; type: functional
Zea mays [9] = experiment: Phytotoxicity against Zea mays (maize) plant at two to four-leaf growth stage at 500 g/ha measured after 13 days under green house conditions; type: organism-based; settings: in vivo, 312 h
Echinochloa crus-galli [10] = experiment: Post-emergent herbicidal activity against Echinochloa crus-galli (barnyard grass) at <2 g/ha measured after 13 days under green house conditions; type: functional, organism-based
Setaria viridis [11] = experiment: Post-emergent herbicidal activity against Setaria viridis (green foxtail) at 500 g/ha measured after 13 days under green house conditions; type: functional
Oryza sativa [12] = experiment: Phytotoxicity against Oryza sativa (rice) plant at two to four-leaf growth stage at <2 g/ha measured after 13 days under green house conditions; type: organism-based; settings: in vivo, 312 h
Oryza sativa [13] = experiment: Phytotoxicity against Oryza sativa (rice) plant at two to four-leaf growth stage at 500 g/ha measured after 13 days under green house conditions; type: organism-based; settings: in vivo, 312 h
Avena fatua [14] = experiment: Post-emergent herbicidal activity against Avena fatua at <2 g/ha measured after 13 days under green house conditions; type: functional, organism-based
Zea mays [15] = experiment: Phytotoxicity against Zea mays (maize) plant at two to four-leaf growth stage at 50 g/ha measured after 13 days under green house conditions; type: organism-based; settings: in vivo, 312 h
Sorghum halepense [16] = experiment: Post-emergent herbicidal activity against Sorghum halepense (Johnson grass) at 50 g/ha measured after 13 days under green house conditions; type: functional
Triticum aestivum [17] = experiment: Phytotoxicity against Triticum aestivum (wheat) at two to four-leaf growth stage at 5 g/ha measured after 13 days under green house conditions; type: organism-based; settings: in vivo, 312 h
Zea mays [18] = experiment: Phytotoxicity against Zea mays (maize) plant at two to four-leaf growth stage at 5 g/ha measured after 13 days under green house conditions; type: organism-based; settings: in vivo, 312 h
Triticum aestivum [19] = experiment: Phytotoxicity against Triticum aestivum (wheat) at two to four-leaf growth stage at 50 g/ha measured after 13 days under green house conditions; type: organism-based; settings: in vivo, 312 h
Sorghum halepense [20] = experiment: Post-emergent herbicidal activity against Sorghum halepense (Johnson grass) at 5 g/ha measured after 13 days under green house conditions; type: functional
Oryza sativa [21] = experiment: Phytotoxicity against Oryza sativa (rice) plant at two to four-leaf growth stage at 50 g/ha measured after 13 days under green house conditions; type: organism-based; settings: in vivo, 312 h
Avena fatua [22] = experiment: Post-emergent herbicidal activity against Avena fatua at 50 g/ha measured after 13 days under green house conditions; type: functional
Oryza sativa [23] = experiment: Phytotoxicity against Oryza sativa (rice) plant at two to four-leaf growth stage at 5 g/ha measured after 13 days under green house conditions; type: organism-based; settings: in vivo, 312 h
Echinochloa crus-galli [24] = experiment: Post-emergent herbicidal activity against Echinochloa crus-galli (barnyard grass) at 5 g/ha measured after 13 days under green house conditions; type: functional
Setaria viridis [25] = experiment: Post-emergent herbicidal activity against Setaria viridis (green foxtail) at 5 g/ha measured after 13 days under green house conditions; type: functional
Setaria viridis [26] = experiment: Post-emergent herbicidal activity against Setaria viridis (green foxtail) at 50 g/ha measured after 13 days under green house conditions; type: functional
Echinochloa crus-galli [27] = experiment: Post-emergent herbicidal activity against Echinochloa crus-galli (barnyard grass) at 50 g/ha measured after 13 days under green house conditions; type: functional
Avena fatua [28] = experiment: Post-emergent herbicidal activity against Avena fatua at 5 g/ha measured after 13 days under green house conditions; type: functional

Row | Compound | Activity (Triticum aestivum [1]) [%] | Activity (Sorghum halepense [2]) | Activity (Zea mays [3]) | Activity (Triticum aestivum [4]) | Activity (Sorghum halepense [5]) [%] | Activity (Echinochloa crus-galli [6]) [%] | Activity (Setaria viridis [7]) | Activity (Avena fatua [8]) [%] | Activity (Zea mays [9]) [%] | Activity (Echinochloa crus-galli [10]) | Activity (Setaria viridis [11]) [%] | Activity (Oryza sativa [12]) | Activity (Oryza sativa [13]) [%] | Activity (Avena fatua [14]) | further results
1 | COC(=O)C(C)Oc1ccc(Oc2ncc3cc(Cl)ccc3n2)cc1 (racemic) | 0 | inactive | Non-toxic | Non-toxic | 85 | 85 | inactive | 0 | 15 | inactive | 65 | Non-toxic | 0 | inactive | –
2 | CCOC(=O)C(C)Oc1ccc(Oc2cnc3cc(Cl)ccc3n2)cc1 (racemic) [QUIZALOFOP ETHYL ESTER] | – | inactive | Non-toxic | Non-toxic | – | – | inactive | – | – | inactive | – | Non-toxic | – | inactive | Activity (Zea mays [15]): 100%; Activity (Sorghum halepense [16]): 100%; Activity (Triticum aestivum [17]): 85%; Activity (Zea mays [18]): 85%; Activity (Triticum aestivum [19]): 85%; Activity (Sorghum halepense [20]): 85%; Activity (Oryza sativa [21]): 70%; Activity (Avena fatua [22]): 85%; Activity (Oryza sativa [23]): 50%; Activity (Echinochloa crus-galli [24]): 70%; Activity (Setaria viridis [25]): 70%; Activity (Setaria viridis [26]): 100%; Activity (Echinochloa crus-galli [27]): 100%; Activity (Avena fatua [28]): 30%
3 | COC(=O)C(C)Oc1ccc(N(C)c2ccc(Cl)cc2Cl)cc1 (racemic) | 70 | inactive | Non-toxic | Non-toxic | 85 | 85 | inactive | 0 | 30 | inactive | 85 | Non-toxic | 0 | inactive | –
4 | COC(=O)C(C)Oc1ccc(Oc2nnc3cc(Cl)ccc3n2)cc1 (racemic) | 0 | inactive | Non-toxic | Non-toxic | 30 | 50 | inactive | 0 | 0 | inactive | 50 | Non-toxic | 0 | inactive | –
5 | CCOC(=O)C(C)Oc1ccc(N(C)c2cc3ccc(Cl)cc3cn2)cc1 (racemic) | 85 | inactive | Non-toxic | Non-toxic | 85 | 100 | inactive | 70 | 100 | inactive | 85 | Non-toxic | 0 | inactive | –
6 | COC(=O)C(C)Oc1ccc(N(C)c2ccc(C(F)(F)F)cn2)cc1 (racemic) | 30 | inactive | Non-toxic | Non-toxic | 0 | 50 | inactive | 0 | 30 | inactive | 0 | Non-toxic | 0 | inactive | –
7 | CCOC(=O)C(C)Oc1ccc(Oc2nc3ccc(Cl)cc3o2)cc1 (racemic) [FENOXAPROP-ETHYL] | – | inactive | Non-toxic | Non-toxic | – | – | inactive | – | – | inactive | – | Non-toxic | – | inactive | Activity (Zea mays [15]): 85%; Activity (Sorghum halepense [16]): 100%; Activity (Triticum aestivum [19]): 0%; Activity (Oryza sativa [21]): 70%; Activity (Avena fatua [22]): 85%; Activity (Setaria viridis [26]): 100%; Activity (Echinochloa crus-galli [27]): 100%
